One assay deals with VPS34 (Homo sapiens, UniProt Q8NEB9). The assay is described as follows: VPS34 ADP Hunter Plus kinase activity assay.
A further assay relates to LC3 flux in U2OS cells. The assay is described as follows: Autophagic flux: LC3-II western blot with/without BafA1 in U2OS cells. It is filed as cell-based, human. To be noted: U2OS. The method, then: (§1) U2OS (human osteosarcoma-derived) cells were cultured in DMEM supplemented with 10% foetal bovine serum, 100 U/ml Penicillin and […] L-glutamine. Cells were pre-treated with compounds at the indicated concentrations for 60 min followed by treatments with EBSS or EBSS combined with/without 50 nM Bafilomycin A1 (Enzo Life Sciences) for a further 60 or 120 min with/without inhibitors, as indicated in figures/figure legends.
(§2) Prior to western blot analysis, cells were washed twice in ice-cold PBS and lysed in buffer containing 50 mM HEPES pH 7.4, 150 mM NaCl, 1 mM EDTA, 10% Glycerol, 0.5% NP-40, 1 mM DTT, supplemented with phosphatase inhibitors (1.15 mM sodium molybdate, 4 mM sodium tartrate, 0.01 M β-glycerophosphate, 1 mM sodium fluoride, 1 mM sodium orthovanadate) and protease inhibitor tablets (Roche) according to manufacturer's instructions. Lysates were then spun at 20 000×g for 10 min and the supernatant was collected for protein content estimation using Protein Assay Dye Reagent Concentrate from Bio-Rad. 4× LDS was added to the lysate (final dilution 1×) prior to heating at 95°C for 5 min. Electrophoresis and transfer to PVDF membranes was performed using standard protocols. Membranes were blocked in 5% milk in TBS-T prior to incubation with primary antibodies (in 5% milk/TBS-T for ULK1, pS555 (human S556) ULK1, pS757 (human S758) ULK1, pS318-ATG13, ATG13, and in 5% BSA/TBS-T for LC3 and α-Tubulin) under rotation overnight at 4°C followed by washes in TBS-T and incubation with HRP-conjugated secondary antibodies (in 5% milk in TBS-T) for 60 min at room temperature. Membranes were washed in TBS-T before application of ECL reagent (GE healthcare) and development on hypersensitive X-ray films (GE healthcare) (Figures 5A, 6C and Supplementary Figure S7C) or using BIO-RAD Clarity^TM western blotting substrate (Supplementary Figure S6C and Supplementary Figure S7A) and a BIO-RAD ChemiDoc^TM imaging system.
(§3) Quantification of western blots was performed with band densitometry analysis using ImageJ. Quantification of LC3 puncta was performed using either the ITCN plugging in ImageJ or Volocity. One-way or two-way Anova (using GraphPad Prism) followed by a post-hoc test, was used for statistical analysis of western blots and immunofluorescence as indicated in figure legends.
For orientation: In western blotting, separated proteins are transferred to a membrane and probed.

For a further assay, the system named is AMPK (ULK1 pS556). Briefly: Upstream AMPK activity: ULK1 pS556 western blot in U2OS cells. The format is cell-based, human. To be noted: 100 nM (VPS34-IN1 500 nM), 60 min pre-treatment, ± EBSS 60 min. The method, then:
as §1
as §2, with “Lysates” for “Prior to western blot analysis, cells were washed twice in ice-cold PBS and lysed in buffer containing 50 mM HEPES pH 7.4, 150 mM NaCl, 1 mM EDTA, 10% Glycerol, 0.5% NP-40, 1 mM DTT, supplemented with phosphatase inhibitors (1.15 mM sodium molybdate, 4 mM sodium tartrate, 0.01 M β-glycerophosphate, 1 mM sodium fluoride, 1 mM sodium orthovanadate) and protease inhibitor tablets (Roche) according to manufacturer's instructions. Lysates”
as §3

In the next assay the target is AMPK α1β2ɣ1 (Homo sapiens, UniProt O43741+P54619+Q13131). The assay is described as follows: AMPK ADP Hunter Plus kinase activity assay.
The test system of the next assay is PI3Kδ. Set-up: method as in ChEMBL database. To be noted: statement in discussion on published selectivity; ref ChEMBL database; cited from earlier work.
A further assay deals with T1, ULK1 (Homo sapiens, UniProt O75385).
T1 construct: purchased MRC PPU Reagents and Services, Dundee, Scotland
T1 sequence (O75385 1-1050): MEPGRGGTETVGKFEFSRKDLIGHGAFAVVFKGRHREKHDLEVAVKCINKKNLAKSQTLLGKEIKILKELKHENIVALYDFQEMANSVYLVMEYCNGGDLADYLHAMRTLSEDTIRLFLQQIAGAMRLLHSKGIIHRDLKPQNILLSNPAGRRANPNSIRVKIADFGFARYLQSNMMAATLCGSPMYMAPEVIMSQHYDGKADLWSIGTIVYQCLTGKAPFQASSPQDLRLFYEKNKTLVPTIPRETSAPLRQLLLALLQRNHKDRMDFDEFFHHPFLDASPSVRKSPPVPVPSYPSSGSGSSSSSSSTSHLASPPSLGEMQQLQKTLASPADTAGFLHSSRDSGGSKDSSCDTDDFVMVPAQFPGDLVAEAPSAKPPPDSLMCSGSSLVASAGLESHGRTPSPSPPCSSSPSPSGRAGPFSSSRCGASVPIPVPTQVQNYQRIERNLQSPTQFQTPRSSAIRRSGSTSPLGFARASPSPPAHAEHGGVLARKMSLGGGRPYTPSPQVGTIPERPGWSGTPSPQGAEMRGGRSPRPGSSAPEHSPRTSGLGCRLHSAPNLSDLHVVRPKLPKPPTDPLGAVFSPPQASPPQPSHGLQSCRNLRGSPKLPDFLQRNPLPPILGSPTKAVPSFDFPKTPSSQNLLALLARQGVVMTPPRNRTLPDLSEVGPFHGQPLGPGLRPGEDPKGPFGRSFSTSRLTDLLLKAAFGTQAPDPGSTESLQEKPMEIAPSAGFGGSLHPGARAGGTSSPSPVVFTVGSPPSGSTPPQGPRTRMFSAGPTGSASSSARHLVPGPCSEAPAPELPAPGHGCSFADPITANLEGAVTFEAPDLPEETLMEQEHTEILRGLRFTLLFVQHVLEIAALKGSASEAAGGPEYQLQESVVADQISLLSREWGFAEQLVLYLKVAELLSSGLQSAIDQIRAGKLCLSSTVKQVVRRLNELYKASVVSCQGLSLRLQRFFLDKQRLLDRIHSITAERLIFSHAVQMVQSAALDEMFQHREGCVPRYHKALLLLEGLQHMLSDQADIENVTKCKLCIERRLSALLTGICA
Briefly: ULK1 ADP Hunter Plus kinase activity assay. The format is biochemical. To be noted: resynthesized samples; mean potency in parenthesis, n = 5; read-out: IC50 against ULK1 (converted).

A further assay relates to VPS34 (WIPI2 puncta). The assay is described as follows: Cellular VPS34 activity: WIPI2 puncta immunofluorescence in U2OS cells. The format is cell-based, human. The method, then:
as §1
Prior to immunofluorescence, cells were grown on glass coverslips to ∼60% confluency. Cells were washed in PBS prior to fixation with 3.7% PFA/10 mM HEPES pH 7.0 at room temperature for 20 min. PFA was quenched using DMEM/10 mM HEPES pH 7.0/0.02% NaN3, followed by permeabilisation with 0.2% NP-40 in PBS for 5 min, followed by blocking with 1% BSA/PBS/0.02% NaN3. Primary antibody incubation was at room temperature for 60 min, followed by two 10-minute washes, then fluorescent secondary antibody incubation for 30 min and further washes (all in blocking buffer) before mounting onto glass slides. A wide field Nikon TS microscope was used for image capturing.
as §3

Another assay has as its system mTOR (ULK1 pS758). The assay is described as follows: Upstream mTOR activity: ULK1 pS758 western blot in U2OS cells. It is filed as cell-based, human. To be noted: 100 nM (VPS34-IN1 500 nM), 60 min pre-treatment, ± EBSS 60 min. On the procedure:
as §1
as §2, with “Lysates” for “Prior to western blot analysis, cells were washed twice in ice-cold PBS and lysed in buffer containing 50 mM HEPES pH 7.4, 150 mM NaCl, 1 mM EDTA, 10% Glycerol, 0.5% NP-40, 1 mM DTT, supplemented with phosphatase inhibitors (1.15 mM sodium molybdate, 4 mM sodium tartrate, 0.01 M β-glycerophosphate, 1 mM sodium fluoride, 1 mM sodium orthovanadate) and protease inhibitor tablets (Roche) according to manufacturer's instructions. Lysates”
as §3

Molecules are shown by their SMILES. Where “and” joins values, the source holds several entries; their conditions need not be identical. Identical values can stand only once.

We go through 1 molecule from paper PMC7054748, “The identification and characterisation of autophagy inhibitors from the published kinase inhibitor sets” (Biochemical Journal, 2020).

Sequence of VPS34 (Q8NEB9 whole entry): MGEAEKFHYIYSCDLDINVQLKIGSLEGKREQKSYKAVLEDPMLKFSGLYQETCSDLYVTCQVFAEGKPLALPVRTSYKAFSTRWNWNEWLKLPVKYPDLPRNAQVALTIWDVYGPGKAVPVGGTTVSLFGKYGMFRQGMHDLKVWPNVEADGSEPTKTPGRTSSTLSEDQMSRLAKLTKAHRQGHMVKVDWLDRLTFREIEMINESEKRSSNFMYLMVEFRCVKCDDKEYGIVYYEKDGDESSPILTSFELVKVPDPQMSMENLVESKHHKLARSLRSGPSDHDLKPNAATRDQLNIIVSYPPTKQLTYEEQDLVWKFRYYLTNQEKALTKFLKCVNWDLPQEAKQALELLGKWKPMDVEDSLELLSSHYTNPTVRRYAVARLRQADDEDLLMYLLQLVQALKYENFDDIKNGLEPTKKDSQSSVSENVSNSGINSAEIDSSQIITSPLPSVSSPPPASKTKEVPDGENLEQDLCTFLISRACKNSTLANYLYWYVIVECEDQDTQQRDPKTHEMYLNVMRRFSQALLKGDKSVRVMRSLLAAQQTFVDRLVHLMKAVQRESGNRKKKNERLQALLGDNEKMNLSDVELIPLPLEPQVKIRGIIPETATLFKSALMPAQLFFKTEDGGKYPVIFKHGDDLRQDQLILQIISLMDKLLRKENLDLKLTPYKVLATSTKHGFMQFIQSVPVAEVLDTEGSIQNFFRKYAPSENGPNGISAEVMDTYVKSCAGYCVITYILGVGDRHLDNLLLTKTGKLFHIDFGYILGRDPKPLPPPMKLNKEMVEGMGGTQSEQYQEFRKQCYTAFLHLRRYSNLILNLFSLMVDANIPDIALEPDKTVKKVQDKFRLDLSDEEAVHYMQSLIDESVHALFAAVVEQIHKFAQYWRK
Sequence of AMPK α1β2ɣ1 (Q13131 whole entry): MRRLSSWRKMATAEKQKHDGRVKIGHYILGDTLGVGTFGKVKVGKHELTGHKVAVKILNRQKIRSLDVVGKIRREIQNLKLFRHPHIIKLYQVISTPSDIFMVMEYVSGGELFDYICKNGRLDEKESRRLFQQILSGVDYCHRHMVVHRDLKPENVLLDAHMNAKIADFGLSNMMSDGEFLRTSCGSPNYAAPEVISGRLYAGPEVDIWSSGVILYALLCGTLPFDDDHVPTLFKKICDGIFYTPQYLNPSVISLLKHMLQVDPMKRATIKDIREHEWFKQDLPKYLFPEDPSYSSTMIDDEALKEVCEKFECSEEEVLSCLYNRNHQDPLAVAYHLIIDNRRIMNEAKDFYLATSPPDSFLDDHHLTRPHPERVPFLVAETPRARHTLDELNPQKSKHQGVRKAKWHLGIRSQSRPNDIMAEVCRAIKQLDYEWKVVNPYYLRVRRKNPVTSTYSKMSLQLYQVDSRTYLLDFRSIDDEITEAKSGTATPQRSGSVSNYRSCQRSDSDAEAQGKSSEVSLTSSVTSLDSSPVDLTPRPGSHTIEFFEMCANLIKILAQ
Sequence of AMPK α1β2ɣ1 (O43741 whole entry partner): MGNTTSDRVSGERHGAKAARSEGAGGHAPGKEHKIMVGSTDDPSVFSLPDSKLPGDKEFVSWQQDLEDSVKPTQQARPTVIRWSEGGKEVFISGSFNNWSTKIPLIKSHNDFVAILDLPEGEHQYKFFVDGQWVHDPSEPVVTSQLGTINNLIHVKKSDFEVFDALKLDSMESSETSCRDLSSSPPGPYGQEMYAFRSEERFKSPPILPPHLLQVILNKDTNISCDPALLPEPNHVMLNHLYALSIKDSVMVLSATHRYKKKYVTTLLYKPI
Sequence of AMPK α1β2ɣ1 (P54619 whole entry partner): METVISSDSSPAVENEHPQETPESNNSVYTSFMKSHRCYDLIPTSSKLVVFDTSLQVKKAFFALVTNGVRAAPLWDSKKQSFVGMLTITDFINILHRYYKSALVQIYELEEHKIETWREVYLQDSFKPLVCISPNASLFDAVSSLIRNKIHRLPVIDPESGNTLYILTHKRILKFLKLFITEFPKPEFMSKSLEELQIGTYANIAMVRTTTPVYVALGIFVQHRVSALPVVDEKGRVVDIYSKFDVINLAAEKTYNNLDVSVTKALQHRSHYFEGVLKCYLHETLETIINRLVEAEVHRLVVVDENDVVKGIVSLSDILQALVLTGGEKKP

A word on the IC50: it is the midpoint of a concentration-inhibition curve. For `O=c1cc(N2CCOCC2)nc2n(Cc3cccc(Cl)c3Cl)c(C3CC3)nn12` [GSK2358994A], the half-inhibitory concentration (IC50) was 8.6 nM and 9 nM on VPS34 (IC50 against VPS34, resynthesized samples, mean potency in parenthesis, n = 5); less than 1000 nM at VPS34 (pIC50 against VPS34, original PKIS samples, concentration-dependent retest of screen hits); 8.51 nM at VPS34 (pIC50 against VPS34, resynthesized samples, 50 µM ATP (KM app), mean ± SD, n = 5); greater than 100000 nM at AMPK α1β2ɣ1; greater than 100000 nM on ULK1. The “Mechanism of inhibition of VPS34 with respect to ATP” value at VPS34 (varying ATP below 200 µM, Michaelis–Menten and Lineweaver–Burk plots) is listed as “primarily ATP competitive inhibition”. Besides, the “Mechanism of inhibition of VPS34 with respect to PI:PS” value at VPS34 (varying PI:PS below 12 µM) was “clear non-competitive inhibition”. Besides, in the assay with LC3 flux in U2OS cells (100 nM, 60 min pre-treatment then 60 min EBSS), the “Effect on LC3 flux under EBSS starvation” value is recorded as “significantly reduced LC3 flux”. Besides, the “Concentration blocking EBSS-induced autophagy (LC3) flux” value with LC3 flux in U2OS cells (EBSS + 50 nM BafA1, as low as, greater effect at 100 nM) is on record as no more than 10 nM. Further, in the assay on AMPK (ULK1 pS556), the “Effect on AMPK activity (pS556 ULK1)” value is “unaffected”. Further, the “Potency against PI3Kδ” value in the assay with PI3Kδ is reported as “potent against PI3Kδ”. In addition, the “Effect on EBSS-induced WIPI2 puncta” value in the assay with VPS34 (WIPI2 puncta) (100 nM, 60 min pre-treatment then 60 min EBSS, vs EBSS only) was “significantly reduced”. The “Concentration working in cells (WIPI2 puncta reduction)” value in the assay with VPS34 (WIPI2 puncta) (EBSS, as low as) was no more than 100 nM. Besides, the “Effect on mTORC1 activity (pS758 ULK1)” value with mTOR (ULK1 pS758) is “unaffected”.
